Measurements published in ChEMBL document CHEMBL1151526, “3-Acetoxy-2,2-bi-1H-indol as a novel inhibitor of ATP binding to DnaA, the protein initiating chromosomal replication in escherichia coli” (Bioorg Med Chem Lett, 1994).

experiment: Inhibition of [alpha-32P]ATP binding to DnaA protein purified from Escherichia coli

Structure (SMILES)	IC50
CCOc1c(-c2cc3ccccc3[nH]2)[nH]c2ccccc12	0.2 mM
CC(=O)Oc1c(-c2cc3ccccc3[nH]2)[nH]c2ccccc12	0.04 mM
O=C1C(c2c[nH]c3ccccc23)=C(c2c[nH]c3ccccc23)C(=O)N1Cc1ccccc1	> 10 mM
CC(=O)Oc1c(-c2c(C(C)=O)c3ccccc3n2C(C)=O)[nH]c2ccccc12	1.5 mM
CC(c1ccccc1)N1C(=O)c2c(c3c4ccccc4[nH]c3c3[nH]c4ccccc4c23)C1=O (stereo not given)	5 mM
Nc1ncnc2c1ncn2[C@@H]1O[C@H](CO)[C@@H](O)[C@H]1O [ADENOSINE]	> 10 mM
CN(C)CCCn1cc(C2=C(c3c[nH]c4ccccc34)C(=O)NC2=O)c2ccccc21 [GF-109203]	3 mM
O=C1/C(=C2\Nc3ccccc3C2=O)Nc2ccccc21 [INDIGO]	0.2 mM
c1ccc2[nH]ccc2c1 [INDOLE]	> 10 mM
O=C1NC(=O)C(c2c[nH]c3ccccc23)=C1c1c[nH]c2ccccc12 [RO-316233]	1 mM
